By viability is commonly meant a read-out of living cells in per cent, often relative to untreated cells. By inhibition is commonly meant the percentage by which the read-out fell short of the control. As usually defined, the IC50 is the point on the concentration scale where inhibition reaches its midpoint. As usually defined, the AUC(0-inf) is total exposure, with the tail of the curve extrapolated. Higher therefore signals high exposure. Broadly, the AUC(0-t) is exposure summed from dosing to a finite time, without extrapolation to infinity. A lower AUC(0-t) goes with less exposure. The term Cmax denotes the peak of the concentration-time curve. Broadly, the half-life is the time in which the quantity being followed falls by half. What is called melting point is the temperature of the solid-liquid transition.

Data set [1] can be described thus: MTT cell viability assay in BV2 microglia cells. To be noted: mouse, mean ± SD, n = 3. Type of data set: cell-based. Here is the method:
(§1) The BV2 microglial cells were purchased from the China Center for Type Culture Collection, CCTCC (Wuhan, Hubei). BV2 microglia cells were incubated in DMEM media supplemented with 10% (v/v) FBS, 100 U/mL penicillin G and […] streptomycin at 37 °C with 5% CO2.
Cell viability assays were evaluated using a 3-(4,5-dimethylthiazol-2-yl)-2,5-diphenyltetrazolium bromide (MTT) assay. BV2 microglia cells were seeded in 96-well plates at a density of 1.6 × 10^5 cells/well in complete medium and incubated for 24 h. Then, the culture medium was sucked and discarded, and sterile PBS was added for washing, and then PBS was removed. Then the cells were treated with different concentrations of target compounds for 24 h. An amount equal to 100 μL of MTT was added to each well and the cells were further incubated for 2–4 h. An amount equal to 150 μL of DMSO was added into a 96-well plate and vibrated with micro-oscillator for 10 min. The optical density (A) was measured at […] on a microplate reader. The inhibitory rate of the various concentrations of agents in BV2 cells was calculated using the following formula:Cell viability (%) = [A492 (sample) − A492 (blank)]/[A492 (control) − A492 (blank)] × 100%
(In general: Tetrazolium assays rely on reduction of a dye to a coloured formazan, in cell work by metabolically active cells.)

Data set [2] relates to LPS-induced NO release in BV2 cells. Nature of the data set: Inhibition of LPS-induced NO release in BV2 cells. Type of data set: cell-based. To be noted: Mus musculus, BV-2; for inhibition at 3 µM / inhibition at 1 µM: pretreated 1 h, then LPS 1 μg/mL for 24 h, BV2 cells; for IC50: BV2 cells, 0.3, 1.0, 3.0 μM, LPS 1 μg/mL 24 h, mean ± SD, n = 3, read-out: IC50 to inhibit LPS-induced NO release. As for the experimental part: as §1
Nitrite, a stable product of nitric oxide, was used to assess NO production. To study the effects of the compounds on NO production, BV2 microglia cells in the logarithmic phase were plated at 1 × 10^5 cells/well in a 24-well microplate and incubated in DMEM medium (10% FBS) overnight. The cells were pretreated with various concentrations of the test compounds for 1 h and further co-cultured with 1 μg/mL LPS and 5% CO2 for 24 h in a 37 °C incubator; then, the supernatant was taken and stored at −20 °C for NO detection. The target compound and LPS were configured with DMEM medium (2% FBS). The determination of NO was carried out according to the instructions. Unpretreated and unstimulated BV2 microglia cells were conducted as the blank control group. The absorbance value was determined at 540 nm, and the corresponding NO content was calculated by using the standard curve. The NO inhibitory rate of the various concentrations of agents in BV2 cells was calculated as per the following formula:Inhibition rate (%) = (LPS(NO concentration) − sample(NO concentration))/(LPS(NO concentration) − negative control(NO concentration)) × 100%.

For a further data set, the system named is JNK. The experiment in a line: LPS-induced JNK phosphorylation in BV2 cells (Western blot). Particulars: 3 μM, 1 h pretreatment, LPS 1 μg/mL 24 h. Type of data set: cell-based. Here is the method: (§2) CU-19, CU-21 and LPS were configured with DMEM medium (2% FBS). The cells were collected and washed three times with ice-cold PBS. The lysate (containing 1% protease inhibitor and phosphatase inhibitor) was added to the collected cells for suspension, and the cells were lysed by ultrasonic crusher. Then the cell lysates were centrifuged (14,000 rpm, 10 min, 4 °C) […] and collect the supernatant. Aliquots of the lysates were separated on 10% sodium dodecyl sulphate (SDS)-polyacrylamide gel electrophoresis (PAGE) and then electro blotted onto a polyvinylidene difluoride (PVDF) membrane. The blots were blocked with 5% (w/v) nonfat dry milk for 2 h at room temperature, followed by incubation with specific primary antibodies at 4 °C overnight. Blots were washed with PBST and incubated with secondary antibody for 2 h, after which an ECL reagent was used for chemiluminescent detection.
A general note: In western blotting, separated proteins are transferred to a membrane and probed.

In another data set the test system is ERK. Nature of the data set: LPS-induced ERK phosphorylation in BV2 cells (Western blot). Format: cell-based. Particulars: 3 μM, 1 h pretreatment, LPS 1 μg/mL 24 h. Here is the method:
as §2

For a further data set, the system named is p38. The experiment in a line: LPS-induced p38 phosphorylation in BV2 cells (Western blot). Format: cell-based. To be noted: 3 μM, 1 h pretreatment, LPS 1 μg/mL 24 h. As for the experimental part: as §2
Data set [3] can be described thus: In vivo pharmacokinetic study in rats. On the set-up: species or system Sprague–Dawley male rats. Particulars: male, Sprague-Dawley, rat plasma, single intravenous dose 20 mg/kg, mean ± SD, n = 4. Here is the method: After a single intravenous dose of 20 mg/kg, 0.5 mL of blood was obtained from the fossa orbitalis veniplex of rats at 5, 10, 20, 30, 45, 60, 120, 180 and 240 min. HPLC was used to determine the concentration of each compound in plasma and the DAS software was used for the noncompartmental pharmacokinetic analysis of the plasma concentration–time data.
Sprague–Dawley male rats, 200–240 g, were housed in cages in an airconditioned room with light dark cycle of 12 h before the experiment started. The animals were fasted for 12 h with water ad libitum. […] The administration volume was 6 mL per kg of body weight. The compounds were dissolved in PEG400 (10% of the administration volume) and water (90% of the administration volume) and sonicated for 30 min. After tail vein injection administration at a dose of 20 mg/kg, 0.5 mL blood was obtained from fossa orbitalis veniplex of rats at 5, 10, 20, 30, 45, 60, 120, 180 and 240 min. Whole blood samples were collected in heparinized tubes and the plasma was immediately centrifuged (10,000 rpm, 10 min, 4 °C) and then stored at −20 °C until analysis. The calibration standards and the plasma samples were extracted by protein precipitation using methanol.

On to `COc1cc(/C=C/C(=O)CC(=O)/C=C/c2ccc(O)c(OC)c2)ccc1O` [CU, curcumin, reference compound], for which, in data set [1], the viability at 24 h, 1 µM was determined as 97.57 ± 0.05%; the viability at 24 h, 3 µM stood at 95.26 ± 0.05%; the viability at 24 h, 10 µM turned out to be 28.15 ± 0.19%. For the same molecule, in data set [2], the inhibition at 3 µM is 37.4% and the IC50 was more than 3000 nM. Also, the “JNK phosphorylation compared to the LPS group” value in the data set with JNK was “inhibited”. Besides, the “ERK phosphorylation compared to the LPS group” value in the data set with ERK is reported as “inhibited”. The “p38 phosphorylation compared to the LPS group” value in the data set on p38 is given as “inhibited”. In data set [3], this molecule gave an AUC(0-inf) of 678 ng·h/mL, an exposure AUC(0-t) of 652 ng·h/mL, a Cmax of 2450 ± 132 ng/mL and a half-life of 24.7 ± 16.9 min. Moreover, the MRT last in data set [3] (read-out: MRT (0-t) (converted)) was 14.1 min. In addition, the MRT inf in data set [3] (read-out: MRT (0-∞) (converted)) is 20.5 min.

`COc1ccc(/C=C/C(=O)/C=C/CCc2ccc(O)cc2)cc1O` [CU-18, (1E,4E)-1-(3-hydroxy-4-methoxyphenyl)-7-(4-hydroxyphenyl)-1,4-heptadien-3-one]: the melting point lay in the range of 152 to 154 °C. In data set [1], the viability at 24 h, 1 µM was 96.14 ± 0.03%; the viability at 24 h, 3 µM was found to be 46.6 ± 1.16%; the viability at 24 h, 10 µM amounted to 8.63 ± 0.373%. Moreover, the inhibition at 1 µM in data set [2] is 2.15%.

Molecule `COc1cc(/C=C/C(=O)/C=C/CCc2ccc(O)c(OC)c2)ccc1O` [CU-20, (1E,4E)-1,7-bis(4-hydroxy-3-methoxyphenyl)-1,4-heptadien-3-one] had a melting point of 103 to 105 °C. In data set [1], the viability at 24 h, 1 µM is 97.31 ± 0.03%; the viability at 24 h, 3 µM is 51.8 ± 0.6%; the viability at 24 h, 10 µM was 12.2 ± 0.21%. Also, in data set [2], the inhibition at 1 µM was 16.9%.

The molecule `Cc1ccc(CC/C=C/C(=O)/C=C/c2ccccc2)cc1` [CU-22, (1E,4E)-1-phenyl-7-(p-tolyl)-1,4-heptadien-3-one] yielded a melting point of 62 to 64 °C. In data set [1], the viability at 24 h, 1 µM was 95.14 ± 0.05%; the viability at 24 h, 3 µM was determined as 88.76 ± 0.06%; the viability at 24 h, 10 µM was found to be 46.6 ± 0.59%. Further, in data set [2], the inhibition at 3 µM is 48.2% and the IC50 was more than 3000 nM.

The molecule `O=C(/C=C/CCc1cccc(O)c1)/C=C/c1ccccc1` [CU-24, (1E,4E)-7-(3-hydroxyphenyl)-1-phenyl-1,4-heptadien-3-one] returned a melting point of 70 to 72 °C. Also, in data set [1], the viability at 24 h, 1 µM is 103.49 ± 0.02%; the viability at 24 h, 3 µM worked out at 91.48 ± 0.07%; the viability at 24 h, 10 µM stood at 23.17 ± 0.09%. Further, in data set [2], the inhibition at 3 µM worked out at 0%.

In turn, `O=C(/C=C/CCc1ccc(O)cc1)/C=C/c1ccccc1` [CU-25, (1E,4E)-7-(4-hydroxyphenyl)-1-phenyl-1,4-heptadien-3-one] came in with a melting point of 75 to 77 °C. In addition, in data set [1], the viability at 24 h, 1 µM stood at 128.6 ± 0.14%; the viability at 24 h, 3 µM worked out at 96.93 ± 0.01%; the viability at 24 h, 10 µM stood at 20.3 ± 0.59%. In addition, the inhibition at 3 µM in data set [2] was determined as 0%.

Molecule `COc1cc(CC/C=C/C(=O)/C=C/c2ccccc2)ccc1O` [CU-26, (1E,4E)-7-(4-hydroxy-3-methoxyphenyl)-1-phenyl-1,4-heptadien-3-one] came in with a melting point of 72 to 74 °C. In data set [1], the viability at 24 h, 1 µM is 107.17 ± 0.07%; the viability at 24 h, 3 µM came to 96.83 ± 0.02%; the viability at 24 h, 10 µM is 12.8 ± 0.14%. Also, in data set [2], the inhibition at 3 µM was found to be 37.6%.

The molecule `O=C(/C=C/CCc1ccc(Cl)cc1)/C=C/c1ccccc1` [CU-28, (1E,4E)-7-(4-chlorophenyl)-1-phenyl-1,4-heptadien-3-one] had a melting point of 48 to 50 °C. Also, in data set [1], the viability at 24 h, 1 µM is 95.71 ± 0.07%; the viability at 24 h, 3 µM was found to be 94.75 ± 0.05%; the viability at 24 h, 10 µM is 81.65 ± 0.22%. The inhibition at 3 µM in data set [2] came to 33.6%.

Source of the values: paper PMC9181915, “Synthesis and Anti-Neuroinflammatory Activity of 1,7-diphenyl-1,4-heptadien-3-ones in LPS-Stimulated BV2 Microglia Via Inhibiting NF-κB/MAPK Signaling Pathways” (Molecules, 2022).
